Active and inactive are the calls of the source. No cut-off for these calls is given here.
What was measured:
BV-2 [1] = assay: Cytotoxicity in mouse BV2 cells assessed as reduction in cell viability incubated for 48 hrs by MTT assay; format: cell-based; conditions: BV-2, 48 h
BV-2 [2] = assay: Suppression of LPS-induced morphological changes in mouse BV2 cells at 5 uM pre-incubated before LPS stimulation by phase contrast microscopy; format: functional, cell-based
BV-2 [3] = assay: Suppression of LPS-induced morphological changes in mouse BV2 cells at 10 uM pre-incubated before LPS stimulation by phase contrast microscopy; format: functional, cell-based
[4] = biological target: T1, Prostaglandin G/H synthase 2 (Homo sapiens) (UniProt P35354); assay: Inhibition of COX2 (unknown origin) by immunoassay
T1 sequence (whole entry): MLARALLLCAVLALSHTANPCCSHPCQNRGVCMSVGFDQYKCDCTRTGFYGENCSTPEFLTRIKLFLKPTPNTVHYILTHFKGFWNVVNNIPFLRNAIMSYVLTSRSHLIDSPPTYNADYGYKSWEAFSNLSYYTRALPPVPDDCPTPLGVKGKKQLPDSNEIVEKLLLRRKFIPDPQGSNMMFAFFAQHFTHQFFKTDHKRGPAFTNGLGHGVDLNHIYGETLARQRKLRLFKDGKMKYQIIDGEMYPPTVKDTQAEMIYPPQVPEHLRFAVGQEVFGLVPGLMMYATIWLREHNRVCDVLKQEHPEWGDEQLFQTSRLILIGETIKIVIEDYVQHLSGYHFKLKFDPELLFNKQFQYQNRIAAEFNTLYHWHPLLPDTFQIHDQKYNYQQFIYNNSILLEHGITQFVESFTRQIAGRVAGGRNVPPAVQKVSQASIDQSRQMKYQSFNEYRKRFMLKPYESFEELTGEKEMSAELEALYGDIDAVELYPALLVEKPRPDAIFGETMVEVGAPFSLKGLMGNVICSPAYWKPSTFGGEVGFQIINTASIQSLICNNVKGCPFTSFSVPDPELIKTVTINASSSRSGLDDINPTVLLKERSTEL

BV-2 [5] = assay: Inhibition of LPS-induced TNFalpha production in mouse BV2 cells at 10 uM pre-incubated before LPS stimulation by ELISA; format: functional
BV-2 [6] = assay: Inhibition of LPS-induced TNFalpha production in mouse BV2 cells at 20 uM pre-incubated before LPS stimulation by ELISA; format: functional
BV-2 [7] = assay: Inhibition of LPS-induced IL6 production in mouse BV2 cells at 10 uM pre-incubated before LPS stimulation by ELISA; format: functional
BV-2 [8] = assay: Inhibition of LPS-induced IL6 production in mouse BV2 cells at 20 uM pre-incubated before LPS stimulation by ELISA; format: functional
Mus musculus [9] = species: Mus musculus; assay: Inhibition of LPS-induced NFkappaB nuclear translocation in mouse BV2 cells pre-incubated before LPS stimulation by immunostaining based confocal laser microscopy; format: cell-based
[10] = biological target: Transcription factor Jun (Mus musculus) (UniProt P05627); assay: Inhibition of LPS-induced AP1 nuclear translocation in mouse BV2 cells pre-incubated before LPS stimulation by immunostaining based confocal laser microscopy; format: cell-based
BV-2 [11] = assay: Inhibition of LPS-induced MMP9 production production in mouse BV2 cells pre-incubated before LPS stimulation by gelatin zymography; format: functional, cell-based
BV-2 [12] = assay: Inhibition of LPS-induced MMP2 production production in mouse BV2 cells pre-incubated before LPS stimulation by gelatin zymography; format: functional, cell-based
Mus musculus [13] = assay: Toxicity in Swiss albino mouse model of acetic acid induced writhing up to 2000 mg/kg, ip dosed 30 mins before acetic acid injection; format: organism-based; conditions: in vivo, 0.5 h
Mus musculus [14] = assay: Analgesic activity in Swiss albino mouse model of acetic acid induced writhing assessed as inhibition of pain response at 10 mg/kg, ip dosed 30 mins before acetic acid injection; format: functional
[15] = Cytotoxicity in mouse BV2 cells assessed as cell viability at 0.5 uM incubated for 48 hrs by MTT assay (reference value: 100%); format: cell-based, BV-2; conditions: read-out: Activity
[16] = Cytotoxicity in mouse BV2 cells assessed as cell viability at 1 uM incubated for 48 hrs by MTT assay (reference value: 100%); format: cell-based, BV-2; conditions: read-out: Activity
[17] = Cytotoxicity in mouse BV2 cells assessed as cell viability at 5 uM incubated for 48 hrs by MTT assay (reference value: 100%); format: cell-based, BV-2; conditions: read-out: Activity
[18] = Cytotoxicity in mouse BV2 cells assessed as cell viability at 10 uM incubated for 48 hrs by MTT assay (reference value: 100%); format: cell-based, BV-2; conditions: read-out: Activity
[19] = Cytotoxicity in mouse BV2 cells assessed as cell viability at 15 uM incubated for 48 hrs by MTT assay (reference value: 100%); format: cell-based, BV-2; conditions: read-out: Activity
[20] = Cytotoxicity in mouse BV2 cells assessed as cell viability at 20 uM incubated for 48 hrs by MTT assay (reference value: 100%); format: cell-based, BV-2; conditions: read-out: Activity
[21] = Cytotoxicity in mouse BV2 cells assessed as cell viability at 40 uM incubated for 48 hrs by MTT assay (reference value: 100%); format: cell-based, BV-2; conditions: read-out: Activity
[22] = Cytotoxicity in mouse BV2 cells assessed as cell viability at 60 uM incubated for 48 hrs by MTT assay (reference value: 100%); format: cell-based, BV-2; conditions: read-out: Activity
[23] = Cytotoxicity in mouse BV2 cells assessed as cell viability at 80 uM incubated for 48 hrs by MTT assay (reference value: 100%); format: cell-based, BV-2; conditions: read-out: Activity
[24] = Cytotoxicity in mouse BV2 cells assessed as cell viability at 100 uM incubated for 48 hrs by MTT assay (reference value: 100%); format: cell-based, BV-2; conditions: read-out: Activity
BV-2 [25] = assay: Inhibition of LPS-induced nitric oxide production in mouse BV2 cells assessed as nitric oxide level at 10 uM pre-incubated before LPS stimulation by Griess reagent based assay (reference value: 121.09%); format: functional; set-up: scale not given: the % may be the effect or the level left
BV-2 [26] = assay: Inhibition of LPS-induced nitric oxide production in mouse BV2 cells assessed as nitric oxide level at 20 uM pre-incubated before LPS stimulation by Griess reagent based assay (reference value: 121.09%); format: functional; set-up: scale not given: the % may be the effect or the level left
BV-2 [27] = assay: Inhibition of LPS-induced TNFalpha production in mouse BV2 cells assessed as TNFalpha level at 10 uM pre-incubated before LPS stimulation by ELISA (reference value: 142.71%); format: functional; set-up: scale not given: the % may be the effect or the level left
BV-2 [28] = assay: Inhibition of LPS-induced TNFalpha production in mouse BV2 cells assessed as TNFalpha level at 20 uM pre-incubated before LPS stimulation by ELISA (reference value: 142.71%); format: functional; set-up: scale not given: the % may be the effect or the level left
BV-2 [29] = assay: Inhibition of LPS-induced IL6 production in mouse BV2 cells assessed as IL6 level at 10 uM pre-incubated before LPS stimulation by ELISA (reference value: 146.75%); format: functional; set-up: scale not given: the % may be the effect or the level left
BV-2 [30] = assay: Inhibition of LPS-induced IL6 production in mouse BV2 cells assessed as IL6 level at 20 uM pre-incubated before LPS stimulation by ELISA (reference value: 146.75%); format: functional; set-up: scale not given: the % may be the effect or the level left
BV-2 [31] = assay: Inhibition of LPS-induced MMP9 production production in mouse BV2 cells assessed as MMP9 protein level pre-incubated before LPS stimulation by gelatin zymography (reference value: 105.113%); format: functional; set-up: scale not given: the % may be the effect or the level left
BV-2 [32] = assay: Inhibition of LPS-induced MMP2 production production in mouse BV2 cells assessed as MMP2 protein level pre-incubated before LPS stimulation by gelatin zymography (reference value: 105.071%); format: functional; set-up: scale not given: the % may be the effect or the level left

Chain of Transcription factor Jun (Mus musculus) (P05627 whole entry): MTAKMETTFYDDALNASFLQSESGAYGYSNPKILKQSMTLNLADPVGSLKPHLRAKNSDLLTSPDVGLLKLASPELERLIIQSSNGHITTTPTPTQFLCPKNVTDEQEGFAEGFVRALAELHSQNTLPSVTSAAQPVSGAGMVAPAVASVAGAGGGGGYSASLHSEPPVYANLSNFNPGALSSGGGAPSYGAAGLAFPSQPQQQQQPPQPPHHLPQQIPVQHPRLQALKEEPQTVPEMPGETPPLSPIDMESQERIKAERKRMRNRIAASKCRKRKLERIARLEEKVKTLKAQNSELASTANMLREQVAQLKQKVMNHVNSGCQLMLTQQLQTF

inhibition [4]: inactive | inhibition [10]: Active
SMILES: O=C1COCCN1c1ccc(/N=C\c2cn(C(=O)c3ccc(Cl)cc3)c3ccccc23)cc1
IC50 (BV-2 [1]): > 100 µM | Activity (BV-2 [2]): Active | Activity (BV-2 [3]): Active | inhibition at 10 µM (BV-2 [5]): 60.5% | inhibition at 20 µM (BV-2 [6]): 70.9% | inhibition at 10 µM (BV-2 [7]): 47.9% | inhibition at 20 µM (BV-2 [8]): 52.9% | inhibition (Mus musculus [9]): Active | inhibition (BV-2 [11]): Active | inhibition (BV-2 [12]): Active | Activity (Mus musculus [13]): Non-Toxic | inhibition in vivo at 10 mg/kg (Mus musculus [14]): 74.9% | viability at 48 h, 0.5 µM [15]: 95.2% | viability at 48 h, 1 µM [16]: 97.6% | viability at 48 h, 5 µM [17]: 93.6% | viability at 48 h, 10 µM [18]: 90.1% | viability at 48 h, 15 µM [19]: 105% | viability at 48 h, 20 µM [20]: 99% | viability at 48 h, 40 µM [21]: 96.6% | viability at 48 h, 60 µM [22]: 84.2% | viability at 48 h, 80 µM [23]: 90.3% | viability at 48 h, 100 µM [24]: 80.5% | Activity (BV-2 [25]): 100.905% | Activity (BV-2 [26]): 100.905% | Activity (BV-2 [27]): 56.34% | Activity (BV-2 [28]): 41.58% | Activity (BV-2 [29]): 76.51% | Activity (BV-2 [30]): 69.12% | Activity (BV-2 [31]): 89.261% | Activity (BV-2 [32]): 84.884%
